# Reference: article PMC9326216, “Treatment of Cardiovascular Dysfunction with PDE3-Inhibitors in Moderate and Severe Hypothermia—Effects on Cellular Elimination of Cyclic Adenosine Monophosphate and Cyclic Guanosine Monophosphate” (Frontiers in Physiology, 2022)
# Key:
# PDE5 = molecular target: T1, PDE5 (Homo sapiens, UniProt O76074); experiment: Phosphodiesterase assay: inhibition of cGMP hydrolysis by recombinant PDE5; format: biochemical; settings: for IC50: 5 µM cGMP, 30 min; for Ki: Cheng-Prusoff
# T1 construct: purchased Sigma-Aldrich, St. Louis, United States
# Description: The study drugs were tested upon their ability to hinder cAMP and cGMP hydrolysis by inhibiting PDE3 and PDE5 respectively. Either 5 µM cAMP or cGMP (Sigma-Aldrich, St. Louis, MO, United States) were used as substrates for the enzymes. The reaction was initiated by adding PDE to the assay solution in designated Eppendorf tubes, containing fresh incubation buffer (10 mM Tris, 8.2 mM Propionic acid, 3 mM Magnesium acetate, 1.5 mM EGTA and 0.5 mg/ml BSA, 0.2 mM DTT) selected substrate (cAMP or cGMP) and inhibitor. The reaction was initiated by adding 0.016 units/µl incubate of PDE3 (Abcam, Cambridge, United Kingdom), or 0.022 units/µl incubate of PDE5 (Sigma-Aldrich, St. Louis, United States). Control samples were free of drug and were either with or without PDE. The incubation time was 30 min in the selected temperature. Reaction was stopped by adding 99.9% methanol to the solutions. Internal standards of cGMP-13C5, cAMP-13C5, AMP-13C5 (Toronto Research Chemicals Inc., Ontario, Canada) and GMP-15N5 (Sigma-Aldrich, St. Louis, MO, United States) were added to each sample, before MS analysis.
# Liquid chromatography tandem mass spectrometry (LC-MS) was used to assess concentrations of the inhibitors for experiments performed to determine intracellular access of these drugs, as well as to quantify levels of cAMP/AMP and cGMP/GMP for the PDE3-and PDE5-inhibition plots. Internal standards were used, as described previously.
# IC50 and Ki values were calculated for each of the drugs, both for their ability to inhibit cAMP- and cGMP- efflux, as well as PDE3 and PDE5 activity. IC50 values were derived according to [Chou (1976)], and Ki values according to [Cheng and Prusoff (1973)]. Inhibition curves were created accordingly, both with and without adjustment for normothermic control.
# erythrocytes = experiment: Intracellular access of the drugs in erythrocytes (LC-MS); format: in vitro ADME, human; settings: 30 min incubation, milrinone 10 µM, amrinone 100 µM, levosimendan 1 µM
# Description: Fresh (<24 h) EDTA blood from healthy donors (n = 18) was obtained and washed with Krebs-Ringer-Phosphate-Buffer containing glucose (KRPB/G, pH 7.4) and centrifuged (10 min, 1,000 g) three consecutive times. Plasma and buffy coat were removed. KRPB/G was added to the cell solution to bring it to the ratio 1:2.5. Hematocrit (Hct) was measured and adjusted with additional buffer to reach 0.44, in order to give the final Hct of 0.40 in the incubation solution. […] The reaction was stopped by placing the test tubes on ice and adding 4 ml of ice cold KRFB/G. The samples were subsequently centrifugated (5 min, 600 g), then washed with KRFB/G once more and centrifugation was repeated twice. 50 µl of the remaining red blood cell suspension was transferred to Eppendorf tubes. 50 µl 500 nM IS-Milrinone-d3 was added as an internal standard (TLC Pharmaceutical Standards Ltd.). 200 µl ZnSO4 was added to each test sample, to induce lysis of the cells, and mixed in a vortex mixer. 30 µl of the samples were used for measurement of protein concentration, the rest was mixed with 500 µl acetonitrile and centrifugated (2 min, 13400 g). Finally, 100 µl of the solution was collected for analysis using mass spectrometry (MS).
# Liquid chromatography tandem mass spectrometry (LC-MS) was used to assess concentrations of the inhibitors for experiments performed to determine intracellular access of these drugs, as well as to quantify levels of cAMP/AMP and cGMP/GMP for the PDE3-and PDE5-inhibition plots. Internal standards were used, as described previously. There was a linearity from 0.2 nM to at least 2000 nM (r^2 > 0.998) for cAMP, AMP, and cGMP. For GMP, linearity was present from 2 nM to at least 2000 nM (r^2 > 0.998). Concerning PDE3-inhibitors, the linearity was found at 10 nM to at least 5,000 nM (r^2 > 0.99). Lower limit of quantification (LLOQ) was 0.2 for cAMP, cGMP, and AMP, 2 nM for GMP and 10 nM for PDE3-inhibitors (2 µl injection volume).
# Intracellular concentrations of drugs were adjusted for protein concentrations in each sample. The total incubation concentrations were also adjusted for protein concentrations to evaluate the degree of access in percentage. Statistical analysis was performed using one-way ANOVA with Holm-Sidak multiple comparisons post hoc test at each temperature. ANOVA on ranks with Dunn post hoc test was used when the results were not normally distributed. The results are presented as means ± standard error of mean (SEM). p-values < 0.05 were considered significant results. Degrees of freedom (dF) is given as between group values. SigmaPlot 14.0 (Systat Software, San Jose, CA, United States) was used for all analysis, as well as creating the graphs.
SMILES,IC50 (PDE5; 20°C),Ki (PDE5; 20°C),IC50 (PDE5; 24°C),Ki (PDE5; 24°C),IC50 (PDE5; 28°C),Ki (PDE5; 28°C),IC50 (PDE5; 32°C),Ki (PDE5; 32°C),IC50 (PDE5; 34°C),Ki (PDE5; 34°C),IC50 (PDE5; 37°C),Ki (PDE5; 37°C),"Intracellular access, % of drug concentration per gram protein in the incubation solution (erythrocytes; 28°C)","Intracellular access, % of drug concentration per gram protein in the incubation solution (erythrocytes; 34°C)"
Nc1cc(-c2ccncc2)c[nH]c1=O [Amrinone],105 ± 8.04 µM,26.7 ± 2.04 µM,99.1 ± 4.2 µM,25.1 ± 1.07 µM,95 ± 7.29 µM,24.1 ± 1.85 µM,84.5 ± 5.94 µM,21.5 ± 1.51 µM,91.9 ± 3.65 µM,23.3 ± 0.93 µM,110 ± 12.8 µM,27.8 ± 3.25 µM,1.66 ± 0.216%,2.303 ± 0.284%
C[C@@H]1CC(=O)NN=C1c1ccc(NN=C(C#N)C#N)cc1 [Levosimendan],157 ± 27.5 µM,39.9 ± 6.97 µM,148 ± 26.1 µM,37.6 ± 6.63 µM,183 ± 23 µM,46.4 ± 5.85 µM,162 ± 22.5 µM,41.2 ± 5.71 µM,150 ± 13.5 µM,38 ± 3.41 µM,155 ± 4.74 µM,39.2 ± 1.2 µM,18.29 ± 3.122%,25.06 ± 5.289%
